According to the supplement of paper PMC10307832:

Experiments:
Test in all cases: relative viability (nuclei count vs DMSO), 5 days (fraction); higher = more cells survive
Pictilisib + Tozasertib = compound: CS(=O)(=O)N1CCN(Cc2cc3nc(-c4cccc5[nH]ncc45)nc(N4CCOCC4)c3s2)CC1 [Pictilisib] + Cc1cc(Nc2cc(N3CCN(C)CC3)nc(Sc3ccc(NC(=O)C4CC4)cc3)n2)n[nH]1 [Tozasertib] (partner 0.1 µM)
Outline: (§1)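 The day after seeding in 1536-well plates, lung cancer cell lines were treated by pin tool with a single drug, or with a fixed anchor-drug dose together with five library-drug doses (not always all listed) in √10 steps. After 5 days, a combined fix-and-stain solution (final 0.05% Triton X-100, 1% formaldehyde, 1 ug/ml Hoechst) was added. Nuclei counted on 4× images gave relative viability as treated counts over vehicle counts, reported as the median of duplicate plates.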

MK-2206 + Luminespib = compound: NC1(c2ccc(-c3nc4ccn5c(=O)[nH]nc5c4cc3-c3ccccc3)cc2)CCC1 [MK-2206] + CCNC(=O)c1noc(-c2cc(C(C)C)c(O)cc2O)c1-c1ccc(CN2CCOCC2)cc1 [Luminespib] (partner 0.01 µM)
Outline: as §1

MK-2206 + Dasatinib = compound: NC1(c2ccc(-c3nc4ccn5c(=O)[nH]nc5c4cc3-c3ccccc3)cc2)CCC1 [MK-2206] + Cc1nc(Nc2ncc(C(=O)Nc3c(C)cccc3Cl)s2)cc(N2CCN(CCO)CC2)n1 [Dasatinib] (partner 0.075 µM)
Outline: as §1

Pictilisib + Olaparib = compound: CS(=O)(=O)N1CCN(Cc2cc3nc(-c4cccc5[nH]ncc45)nc(N4CCOCC4)c3s2)CC1 [Pictilisib] + O=C(c1cc(Cc2n[nH]c(=O)c3ccccc23)ccc1F)N1CCN(C(=O)C2CC2)CC1 [Olaparib] (partner 8 µM)
Outline: as §1

MK-2206 + Alpelisib = compound: NC1(c2ccc(-c3nc4ccn5c(=O)[nH]nc5c4cc3-c3ccccc3)cc2)CCC1 [MK-2206] + Cc1nc(NC(=O)N2CCC[C@H]2C(N)=O)sc1-c1ccnc(C(C)(C)C(F)(F)F)c1 [Alpelisib] (partner 2 µM)
Outline: as §1

| Cell Line | relative viability (Pictilisib + Tozasertib; first compound 0.02 µM) | relative viability (Pictilisib + Tozasertib; first compound 0.06325 µM) | relative viability (Pictilisib + Tozasertib; first compound 0.6325 µM) | relative viability (Pictilisib + Tozasertib; first compound 2 µM) | relative viability (MK-2206 + Luminespib; first compound 0.01 µM) | relative viability (MK-2206 + Luminespib; first compound 0.03162 µM) | relative viability (MK-2206 + Luminespib; first compound 0.3162 µM) | relative viability (MK-2206 + Luminespib; first compound 1 µM) | relative viability (MK-2206 + Dasatinib; first compound 0.01 µM) | relative viability (MK-2206 + Dasatinib; first compound 0.03162 µM) | relative viability (MK-2206 + Dasatinib; first compound 0.3162 µM) | relative viability (MK-2206 + Dasatinib; first compound 1 µM) | relative viability (Pictilisib + Olaparib; first compound 0.02 µM) | relative viability (Pictilisib + Olaparib; first compound 0.06325 µM) | relative viability (Pictilisib + Olaparib; first compound 0.6325 µM) | relative viability (Pictilisib + Olaparib; first compound 2 µM) | relative viability (MK-2206 + Alpelisib; first compound 0.01 µM) | relative viability (MK-2206 + Alpelisib; first compound 0.03162 µM) | relative viability (MK-2206 + Alpelisib; first compound 0.3162 µM) | relative viability (MK-2206 + Alpelisib; first compound 1 µM) |
| --- | --- | --- | --- | --- | --- | --- | --- | --- | --- | --- | --- | --- | --- | --- | --- | --- | --- | --- | --- | --- |
| LU99A | 0.338 | 0.292 | 0.262 | 0.163 | 0.284 | 0.251 | 0.268 | 0.203 | 0.524 | 0.733 | 0.48 | 0.498 | 0.273 | 0.301 | 0.254 | 0.216 | 0.569 | 0.559 | 0.396 | 0.472 |
| SW 1573 | 0.164 | 0.174 | 0.146 | 0.137 | 0.275 | 0.192 | 0.201 | 0.184 | 0.431 | 0.554 | 0.364 | 0.419 | 0.512 | 0.542 | 0.377 | 0.22 | 0.763 | 0.817 | 0.607 | 0.613 |
| COR-L23 | 0.245 | 0.185 | 0.139 | 0.136 | 0.713 | 0.695 | 0.581 | 0.529 | 0.452 | 0.527 | 0.494 | 0.536 | 0.316 | 0.319 | 0.337 | 0.327 | 0.82 | 0.904 | 0.681 | 0.686 |
